One block for each molecule: values may come before it.
Assays:
[1] = system: Neuro2A cells; experiment: Neuro2A cells that extended neurites, with GGTI-298 (Example 18); type: cell-based; conditions: 0.1-1 μM; vehicle 0.0-0.20
Text: After differentiation was induced, cells that extended neurites were counted.

[2] = system: Rat primary motor neurons; experiment: Axon extension of rat primary motor neurons; type: cell-based; conditions: 72 hrs; read-out: EC50 (cells extending axons)
Method: Rat primary motor neurons were isolated from embryonic spinal cords in accordance with the method of Henderson et al.; J Cohen and G P Wilkin (ed.), Neural Cell Culture, (1995) p69-81 which is herein incorporated by reference in its entirety. Briefly, spinal cords were dissected from day 15 embryo (E15) and incubated in a trypsin solution, and followed by DNase treatment to release spinal cord cells from tissue fragments. The cell suspension was centrifuged to remove tissue fragments. Then motor neurons were enriched by density gradient centrifugation.
Motor neurons were cultured in serum-free neurobasal medium containing insulin, forskolin, 3-isobutyl-1-methylxanthine, neurotrophic factors, Bovine serum albumin, selenium, transferrin, putrescine, progesterone and B27 supplement in tissue culture plate coated with poly-ornithine and laminin.
Rat primary motor neurons were prepared and cultured as described in Example 13. […] The cells extending axons were counted in five different fields for each treatment after 72 hrs. Percentage of positive cells relative to total cells in the same magnification field was calculated and the results were expressed as means+/−standard deviations, n=5.

[3] = system: Mouse Neuro2A neuroblastoma cells; experiment: Neuro2A cells with neurites after GGTI-298 (Example 16); type: cell-based; conditions: 10 μM
Method: Mouse Neuro2A neuroblastoma cells were cultured in DMEM supplemented with 10% FBS for 24 hrs. […] Then differentiation was induced by retinoic acid in DMEM supplemented with 2% FBS. The cell culture was incubated with a Geranylgeranyl Transferase inhibitor, GGTI-298. After 24 hrs incubation, cells with neurites were counted.

[4] = system: Sprague-Dawley rats; experiment: Kainic acid induced neurodegeneration and seizure behaviors in rats (Examples 20, 21); type: in vivo, rat; conditions: oral
Text: Seizure behaviors were observed and scored (Ref. R. J. Racine, Modification of seizure activity by electrical stimulation: II. Motor seizure, Electroencephalogr. Clin. […] Modifications were made for the methods). Brain tissues of rats were sectioned on histology slides, and neurons in hippocampus tissues were stained by Nissl. Neurons in dentate gyrus tissues damaged by Kainic acid were quantified. The Memantine composition used in comparison refers to a commercially available NMDA receptor […]. […] Seizure behaviors were observed and scored (Ref. R. J. Racine, Modification of seizure activity by electrical stimulation: II. Motor seizure, Electroencephalogr. Clin. […] Modifications were made for the methods). Brain tissues of rats were sectioned on histology slides, and neurons in hippocampus tissues were stained by Nissl. Neurons damaged by Kainic acid and behavior scores were quantified.

[5] = system: Rap1; experiment: Prenylation of Rap1 in Neuro2A cells, western blotting; type: cell-based, mouse; conditions: 100 nM; with GGTI-298; percentage of control (GGTI only)
Method: Mouse neuroblastoma Neuro2A cells were cultured in DMEM supplemented with 10% FBS for 24 hrs. The cells were treated with 102GGA derivative compounds for 24 hrs first before GGTase inhibitor GGTI-298 was added to the culture medium for additional 24 hr incubation. […] Both un-prenylated and total Rap1 protein bands were quantified using Image J and normalized to their respective loading control GAPDH. The results for control and each compound treatment were calculated as the ratio of normalized un-prenylated Rap1 to total Rap1, and averaged from two biological repeats of one experiment. The final results were presented as a percentage of the control treatments (GGTI only) from the same batch experiment. The data shown in the chart were averaged from two repeats of one experiment and presented as the ratio of normalized un-prenylated Rap1 to total Rapt Compound ID numbers in table refer to structures in Table 1 and Table 2.

[6] = system: Murine neuro2A neuroblastoma cells; experiment: Neurite outgrowth of neuro2A cells with GGTI-298 (Example 30); type: cell-based, mouse; conditions: for Protection % / Median Counts (cells with neurite outgrowth) / ratio of counts relative to no inhibition: CNS-102/CNS-103 experiment; for Median Counts (cells with neurite outgrowth): no inhibition 60.3, PBS 18.5
Method: Differentiation was induced and cells incubated with geranylgeranyl transferase I inhibitor, GGTI-298. After 24 h digital images were taken and neurite outgrowth was quantified. The comparisons of the neuroprotective effect of these three compounds are shown below.
The estimated mean log10 counts, from five replicate wells for each treatment group were calculated by PROC GLM in SAS assuming a pooled estimate of variation.
The estimated mean log 10 counts from five replicate wells for each treatment group were calculated by PROC GLM in SAS assuming a pooled estimate of variation.
Differences in mean log(counts) between treatments for each concentration were calculated using PROC GLM in SAS. The p-value given is for the comparison of the estimated difference to zero, the expected difference value for no treatment effect. The anti-log of the differences represent the estimated ratio of counts (relative effect on inhibition) and are tabulated below along with the lower and upper 95% confidence intervals.

[7] = system: HSP70; experiment: HSP70 expression in neuro2A cells, western blot; type: cell-based, mouse; conditions: for HSP70 western signal (absence of compounds = 1.00): 48 hours, GGTI-298
Method: Differentiation was induced and cells incubated with geranylgeranyl transferase I inhibitor, GGTI-298. Cells were harvested and lysates were prepared and analyzed by western blot for HSP70 and HSP90. Western signals in the absence of the compounds were normalized as 1.00.

[8] = system: Sprague Dawley rats; experiment: Kainic acid stereotactic hippocampus injection model, fraction of cells damaged; type: in vivo, rat; conditions: 3 mg/kg oral; KA at 72 hours
Method: CNS-102 was administered orally to Sprague Dawley rats at 12 mg/kg. After dosing, KA was stereotactically injected into the hippocampus at 24, 48, 72, 96 and 168 hours to induce neuron damage. After 24 h, hippocampus tissue was collected, stained, and imaged. The scans were analyzed by Image J to calculate the fraction of cells having KA-induced damage. Average fraction damaged in the hippocampus from ten animals for each treatment (PBS vs. 12 mg/kg CNS-102) by time (24, 48, 72, 96 and 168 hours) combination was estimated with PROC MIXED in SAS. Comparisons of the CNS-102 treatment groups to the pooled PBS treatment at the different times can be made, giving the results tabulated below.
The fraction of cells damaged in the kainic acid model was determined on 130 rats, each receiving one dose of CNS-102 at either 0, 1, 3, 6, 12 or 24 mg/kg. PBS was used for dosing at 0 mg/kg. The linear model of the log10 percent damage versus concentration is graphically shown FIG. 5.
After dosing, KA was stereotactically injected into the hippocampus at 72 hours to induce neuron damage. After 24 h, hippocampus tissue was collected, stained, and imaged. The scans were analyzed by Image J to calculate the fraction of cells having KA-induced damage.
The indicated compounds or vehicle control were orally dosed to Sprague-Dawley rats, and Kainic acid was injected. After dosing, KA was stereotactically injected into the hippocampus at 72 hours to induce neuron damage. After 24 h, hippocampus tissue was collected, stained, and imaged. The scans were analyzed by Image J to calculate the fraction of cells having KA-induced damage. Neurons damaged by Kainic acid (mean of hippocampus CA3 neurons damaged) were quantified.

[9] = system: RhoA; experiment: Active RhoA to total RhoA in Neuro2A cells (G-LISA, ELISA); type: cell-based, mouse; conditions: 48 hrs treatment, ratio of active RhoA to total RhoA as percentage of DMSO treatments, concentration not given
Method: Mouse neuroblastoma Neuro2A cells were cultured in DMEM supplemented with 10% FBS for 24 hrs. […] Cell lysates were quantified and subjected either to active RhoA assay using G-LISA RhoA activation Assay Biochem Kit (Cytoskeleton Inc), or to total RhoA assay using Total RhoA ELISA Kit (Cytoskeleton Inc). The results were calculated as ratio of active RhoA to total RhoA and averaged from 3 biological repeats of one experiment with background subtraction. The data was presented as percentage of DMSO treatments.

[10] = system: HSP70; experiment: HSP70 levels in Neuro 2a cells, ELISA; type: cell-based, mouse; conditions: 48 hrs compound then 24 hrs GGTI-298
Method: Mouse neuroblastoma 2a cells were cultured in DMEM with 10% FBS for 24 hrs. […] After 24 hrs cells were harvested and lysates were prepared and analyzed by ELISA for HSP70. Compound ID numbers in table refer to structures in Table 1 and Table 2.

[11] = system: SOD1 mice; experiment: CatWalk gait analysis in SOD1 mice; type: in vivo, mouse; parameters: Hind stride length, Mean/average: unit not given beside the values
Text: Prior to onset, there was little to no difference between the transgenic and wildtype groups. Transgenic animals tended to rely more on front paws for movement as weakness and paralysis in the hind paws progressed. This began to show around timepoint P100, coinciding with the expected onset of disease. This impairment was seen through changes in front and hind paw step cycle, print area, mean intensity, and base of support.

- EC50 [2]: 9.49 nM
SMILES: CC(=O)CC/C=C(/C)CC/C=C(\C)CC/C=C(\C)CCC=C(C)C [CNS-103]
- Mean of cell numbers (cells that extended neurites) [1]: 0.20-0.45 Arbitrary units
- Mean of cell numbers (cells with neurites) [3]: 0.195 Arbitrary units
- Mean of Hippocampus CA3 Neurons Damaged ([4]; 12 mg/Kg rat): 8.16 Arbitrary units
- Mean of Hippocampus CA3 Neurons Damaged ([4]; 25 mg/Kg rat): 10.64 Arbitrary units
- unprenylated/total RAP1 (%) [5]: 96%
- Protection % ([6]; 10 nM): 19.6%
- Median Counts (cells with neurite outgrowth) ([6]; 10 nM): 26.7
- ratio of counts relative to no inhibition ([6]; 10 nM): 0.443
- Protection % ([6]; 100 nM): 25.8%
- Median Counts (cells with neurite outgrowth) ([6]; 100 nM): 29.3
- ratio of counts relative to no inhibition ([6]; 100 nM): 0.486
- Protection % ([6]; 1000 nM): 24.4%
- Median Counts (cells with neurite outgrowth) ([6]; 1000 nM): 28.7
- ratio of counts relative to no inhibition ([6]; 1000 nM): 0.476
- Protection % ([6]; 10000 nM): −5.3%
- Median Counts (cells with neurite outgrowth) ([6]; 10000 nM): 16.3
- ratio of counts relative to no inhibition ([6]; 10000 nM): 0.270
- maximum protection ([6]; CNS-102/CNS-103 experiment (FIG. 4B)): ~26%
- HSP70 western signal (absence of compounds = 1.00) ([7]; 100 nM): 1.00
- HSP70 western signal (absence of compounds = 1.00) ([7]; 1 μM): 1.07
- HSP70 western signal (absence of compounds = 1.00) ([7]; 10 μM): 0.99
- induction of HSP70 expression ([7]; various concentrations): failed to induce expression of HSP70

SMILES: CCCCCNC(=O)OC/C=C(\C)CC/C=C(\C)CCC=C(C)C [Compound 8b, n-Pentyl 2E, 6E-farnesyl carbamate]
- Mean of Hippocampus CA3 Neurons Damaged [8]: 20%
- % Relative RhoGTPase Activity [9]: 125.0%
- HSP70 level, ELISA signal (absence of compounds normalized as 1.00) ([10]; 10uM): 1.38
- unprenylated/total RAP1 (%) [5]: 55%

SMILES: CCCCNC(=S)OC/C=C(\C)CC/C=C(\C)CC/C=C(\C)CCC=C(C)C [Compound 10e, O-((2E,6E,10E)-3,7,11,15-tetramethylhexadeca-2,6,10,14-tetraen-1-yl) butylcarbamothioate]
- % Relative RhoGTPase Activity [9]: 89.7%
- HSP70 level, ELISA signal (absence of compounds normalized as 1.00) ([10]; 100 nM): 1.09
- unprenylated/total RAP1 (%) [5]: 56%

SMILES: CC(C)=CCC/C(C)=C/CC/C(C)=C/CC/C(C)=C/c1nnc(-c2ccc(C)cc2)o1 [Compound 29b, 2-((1E,5E,9E)-2,6,10,14-tetramethylpentadeca-1,5,9,13-tetraen-1-yl)-5-(p-tolyl)-1,3,4-oxadiazole]
- % Relative RhoGTPase Activity [9]: 96.1%
- HSP70 level, ELISA signal (absence of compounds normalized as 1.00) ([10]; 100 nM): 1.11
- HSP70 level, ELISA signal (absence of compounds normalized as 1.00) ([10]; 10uM): 1.17
- unprenylated/total RAP1 (%) [5]: 49%

SMILES: CCOC(=O)C(C/C=C(\C)CC/C=C(\C)CC/C=C(\C)CC/C=C(\C)CCC=C(C)C)C(C)=O (stereo not drawn) [Compound 135]
- % Relative RhoGTPase Activity [9]: 93.2%
- HSP70 level, ELISA signal (absence of compounds normalized as 1.00) ([10]; 10uM): 1.07
- unprenylated/total RAP1 (%) [5]: 50%

SMILES: CC12CC3CC(C)(C1)CC(N)(C3)C2 [Memantine, reference compound]
- Hippocampus dentate gyrus neurons damaged ([4]; Kainic acid, vehicle 20.9): 3.53 Arbitrary units
- Seizure behaviors scores ([4]; Kainic acid, vehicle 34): 36.2

SMILES: Nc1nc2ccc(OC(F)(F)F)cc2s1 [Riluzole, reference compound]
- Run Duration, Mean/average ([11]; P-42, SOD1/Vehicle 1.484746201): 1.65
- Hind stride length, Mean/average ([11]; P-42, SOD1/Vehicle 6.359471205): 6.337
- Swing speed, Mean/average ([11]; P-42, SOD1/Vehicle 45.8515272): 43.07
- Run Duration, Mean/average ([11]; P-124 (+/−) 3, SOD1/Vehicle 3.461605345): 3.113
- Hind stride length, Mean/average ([11]; P-124 (+/−) 3, SOD1/Vehicle 3.607909383): 4.244
- Swing speed, Mean/average ([11]; P-124 (+/−) 3, SOD1/Vehicle 23.93413455): 29.71
